# Reference: patent publication EP1083873B1 (MGI GP, Inc., priority 1998, dated 1999)
# Tested on: C57 black 6 mice
# Assay: In vivo hair generation test, Experiment A (shaved C57 black 6 mice, topical)
# Settings: 30 µM topical in 20% propylene glycol, 3 applications over 5 days, after six weeks
# From the text: Care was taken not to nick or cause abrasion to the underlaying dermal layers. The animals were in anagen growth phase, as indicated by the pinkish color of the skin. […] Hair growth was quantitated by the percent of shaved area covered by new hair growth during this time period.
row,SMILES,hair regrowth in the shaved area
1,"CCC(C)(C)C(=O)C(=O)N1CCC[C@H]1C(=O)OCCCc1cccnc1 [GPI 1046, 3-(3-pyridyl)-1-propyl (2s)-1-(3,3-dimethyl-1,2-dioxopentyl)-2-pyrrolidinecarboxylate]",essentially complete hair regrowth

# Tested on: C57 black 6 mice
# Assay: In vivo hair generation test, Experiment B (shaved C57 Black 6 mice, topical, 14 days)
# Settings: one micromole per milliliter topical, three times per week, 14 days after initiation of treatment
# Method: Care was taken not to nick or cause abrasion to the underlying dermal layers. The animals were in anagen growth phase when shaved. […] The animals were treated three times per week, and hair growth was evaluated 14 days after initiation of treatment.
row,SMILES,"hair growth (Figure 5, relative hair growth index)"
1,CCC(C)(C)C(=O)C(=O)N1CCC[C@H]1C(=O)SCCC(c1ccccc1)c1ccccc1 [GPI 1234],dramatic hair growth
2,CCC(C)(C)C(=O)C(=O)N1CCCC[C@H]1C(=O)SCCC(c1ccccc1)c1ccccc1 [GPI 1511],dramatic hair growth

# Molecular target: FKBP12 (Homo sapiens, UniProt P62942)
# Sequence (P62942 whole entry, species assumed): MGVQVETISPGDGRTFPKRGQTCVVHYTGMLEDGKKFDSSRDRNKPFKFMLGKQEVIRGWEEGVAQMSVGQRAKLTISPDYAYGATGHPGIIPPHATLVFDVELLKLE
# Assay: Ki test procedure: inhibition of peptidyl-prolyl isomerase (rotamase) activity, chymotrypsin-coupled assay
# Type: biochemical
# Settings: not given
# From the text: The inhibition of the prolyl peptidyl cis-trans isomerase activity of FKBP may be measured as an indicator of this affinity.
# Inhibition of the peptidyl-prolyl isomerase (rotamase) activity of the compounds used in the inventive methods and pharmaceutical compositions can be evaluated by known methods described in the literature (Harding et al., Nature, 1989, 341:758-760; Holt et al. J. Am. Chem. Soc., 115:9923-9938).
# The cis-trans isomerization of an alanine-proline bond in a model substrate, N-succinyl-Ala-Ala-Pro-Phe-p-nitroanilide, is monitored spectrophotometrically in a chymotrypsin-coupled assay, which releases paranitroanilide from the trans form of the substrate. The inhibition of this reaction caused by the addition of different concentrations of inhibitor is determined, and the data is analyzed as a change in first-order rate constant as a function of inhibitor concentration to yield the apparent Ki values.
# In a plastic cuvette are added […] of ice cold assay buffer (25 mM HEPES, pH 7.8, 100 mM NaCl), 10 mL of FKBP (2.5 mM in 10 mM Tris-Cl pH 7.5, 100 mM NaCl, 1 mM dithiothreitol), […] of chymotrypsin (50 mg/ml in 1 mM HCl) and […] of test compound at various concentrations in dimethyl sulfoxide. The reaction is initiated by the addition of 5 mL of substrate (succinyl-Ala-Phe-Pro-Phe-para-nitroanilide, 5 mg/mL in 2.35 mM LiCl in trifluoroethanol).
# The absorbance at 390 nm versus time is monitored for 90 seconds using a spectrophotometer and the rate constants are determined from the absorbance versus time data files.
row,SMILES,Ki [nM]
1,O=C(C(=O)N1CCC[C@H]1C(=O)SCCc1ccccc1)C1CCCCC1 [Compound 12],442
2,O=C(C(=O)N1CCCCC1C(=O)SCCc1ccccc1)c1ccccc1 (stereo not drawn) [Compound 14],313
3,CC(C)(C)C(=O)C(=O)N1CCCCC1C(=O)SCCCc1ccccc1 (stereo not drawn) [Compound 29],59
4,O=C(C(=O)N1CCC[C@H]1C(=O)SCCCCc1ccccc1)C1CCCCC1 [Compound 33],1700
5,O=C(C(=O)N1CCC[C@H]1C(=O)SCCCc1cccnc1)C1CCCCC1 [Compound 35],62
6,CC(C)(C)C(=O)C(=O)N1CCCCC1C(=O)SCCCCc1ccccc1 (stereo not drawn) [Compound 39],347
7,COc1ccc(CCCSC(=O)C2CCCCN2C(=O)C(=O)c2ccccc2)cc1 (stereo not drawn) [Compound 43],259
8,CCC(C)(C)C(=O)C(=O)N1CCCC1C(=O)SCCCC(c1ccc(F)cc1)c1ccc(F)cc1 (stereo not drawn) [Compound 46],757
9,CCC(C)(C)C(=O)C(=O)N1CCC[C@H]1C(=O)SCCCc1cccc2ccccc12 [Compound 47],21
10,CCC(C)(C)C(=O)C(=O)N1CCC[C@H]1C(=O)SCCCc1cccc(Cl)c1 [Compound 54],37
11,CCC(C)(C)C(=O)C(=O)N1CCC[C@H]1C(=O)SCCCc1ccccc1F [Compound 57],57
12,CCC(C)(C)C(=O)C(=O)N1CCC[C@H]1C(=O)SCCCc1cccc(F)c1 [Compound 58],79
13,CCC(C)(C)C(=O)C(=O)N1CCCCC1C(=O)SCCCCc1ccccc1 (stereo not drawn) [Compound 59],962
14,CCC(C)(C)C(=O)C(=O)N1CCCCC1C(=O)SCCCc1ccccc1 (stereo not drawn) [Compound 60],90
15,CCC(C)(C)C(=O)C(=O)N1CCC[C@H]1C(=O)SCCCc1ccccc1Cl [Compound 61],139
16,CCC(C)(C)C(=O)C(=O)N1CCCCC1C(=O)SCCCc1cccc(F)c1 (stereo not drawn) [Compound 64],163

# Same assay, conditions: apparent Ki, rotamase inhibition
row,SMILES,Ki [nM]
1,"CCC(C)(C)C(=O)C(=O)N1CCCCC1C(=O)SCCCc1ccc2ccccc2c1 [Compound 53, 3-(2-Naphthyl)propyl (2R, S) -1-(3,3-dimethyl-2-oxopentanoyl)-2-piperidinecarbothioate]",261

# Same assay, conditions: apparent Ki, rotamase inhibition; read-out: Ki
row,SMILES,Ki [nM]
1,"CCC(C)(C)C(=O)C(=O)N1CCC[C@H]1C(=O)SCc1csc2ccccc12 [Compound 11, (3-Thioindolyl) methyl (2S) -1-(3,3-dimethyl-1,2-dioxopentyl)-2-pyrrolidinecarbothioate]",299
